Our source for the IC50 and IC90 values is ChEMBL document CHEMBL4483862, “Open-source discovery of chemical leads for next-generation chemoprotective antimalarials” (2018).

Some results are limits rather than exact numbers.

In this experiment the test system is Plasmodium berghei. Kind of experiment: Luciferase/luciferin-expressing antifolate-resistant parasites were used to infect a culture of HepG2 cells that were pre-incubated with compounds. Infected hepatocytes emit light due to the luciferase reaction. Assay results are presented as the percent inhibition of light emission compared to control. […]. It is filed as functional. Particulars: sporozoite; for IC50: read-out: LUCIFERASE INFECTION ASSAY - IC50; for IC90: read-out: LUCIFERASE INFECTION ASSAY - IC90.

`COC(=O)c1c(C(=O)OC)c2n(c1C)CCS2`: the IC50 (as a rule, the point on the concentration scale where inhibition reaches its midpoint) is > 12.9 µM and the IC90 – broadly, the point of the concentration-response curve where the effect stands at 90% – is > 12.9 µM.
Take `CC1(C)CCc2cc(/C=N/OC(=O)Nc3ccc(OC(F)(F)F)cc3)ccc2O1`: the 50% inhibitory concentration (IC50) was > 8.08 µM and the IC90 is > 8.08 µM.
As to `CCO/C(C)=N\OC(=O)c1c(-c2c(Cl)cccc2Cl)noc1C`, the IC50 is > 9.24 µM and the IC90 is > 9.24 µM.
Take `CC(C)c1ccc(N/N=C/c2cc(C#Cc3ccccc3)cs2)cc1`: the IC50 is > 9.58 µM and the IC90 is > 9.58 µM.
As to `O=C(CSCCCN1CCN(c2cccc(Cl)c2)CC1)N/N=C/c1ccc(Cl)cc1`, the IC50 was > 7.09 µM and the IC90 is > 7.09 µM.
Consider `Cn1c(-c2cncc(C#Cc3ccccc3)c2)n[nH]c1=S`, for which the IC50 was > 11.3 µM and the IC90 is > 11.3 µM.
Turning to `CCOC(=O)C1=C(Nc2ccc(OS(=O)(=O)c3ccc(Cl)cc3)cc2)C(=O)N(C(C)(C)C)C1`, the IC50 was > 6.69 µM and the IC90 was > 6.69 µM.
For `O=S(=O)(c1cccs1)n1ccc(-c2ccc3c(c2)CCO3)n1`, the IC50 is > 9.93 µM and the IC90 is > 9.93 µM.
On to `COc1ccc(NC=C2C(=O)CC(c3cccs3)CC2=O)cc1` (stereo not drawn), for which the IC50 is > 10.1 µM and the IC90 was > 10.1 µM.
On to `CNC(=O)NC(=O)c1sc(SC)c(-c2ccon2)c1C`, for which the IC50 was > 10.6 µM and the IC90 was > 10.6 µM.
With `O=[N+]([O-])c1cc(C(F)(F)F)ccc1N/N=C1\CCCCC1CCS(=O)(=O)c1ccc(Cl)cc1` (stereo not drawn), the IC50 was > 6.55 µM and the IC90 was > 6.55 µM.
On to `O=C(NCCSCc1ccc2nonc2c1)c1ccc(Cl)cc1Cl`, for which the IC50 is > 8.63 µM and the IC90 was > 8.63 µM.
In the case of `CCOC(=O)COc1ccccc1/C=C(/C#N)S(=O)(=O)c1ccccc1`, the IC50 was > 8.89 µM and the IC90 was > 8.89 µM.
For the compound `O=C1NC(=O)N2CSCC12` (stereo not drawn), the IC50 was > 20.9 µM and the IC90 is > 20.9 µM.
For the compound `COc1cc(C(F)(F)F)nc2ccc(C#CCOC(=O)c3ccccc3Cl)cc12`, the IC50 is > 7.86 µM and the IC90 was > 7.86 µM.
For `O=C(NNC(=O)c1ccc(CSc2ccc(C(F)(F)F)cn2)o1)c1ccc(Cl)cc1`, the IC50 was > 7.24 µM and the IC90 is > 7.24 µM.
With `CC(=O)c1ccc(C#Cc2ccccc2)s1`, the IC50 was > 14.6 µM and the IC90 is > 14.6 µM.
Take `O=C(NNc1cc(C(F)(F)F)nc2ccccc12)Nc1ccc(Cl)cc1`: the IC50 is > 8.67 µM and the IC90 was > 8.67 µM.
With `O=C(NC(=S)Nc1ccc(F)cc1)c1cnn2c(C(F)(F)F)cc(C(F)(F)F)nc12`, the IC50 was > 7.31 µM and the IC90 is > 7.31 µM.
Consider `Cc1[nH]c2ccccc2c1Sc1ccc(Cl)cc1`, for which the half-inhibitory concentration (IC50) is > 12.1 µM and the IC90 is > 12.1 µM.
On to `O=C(Nc1ccc(Cl)cc1)O/N=C\c1ccc(C#Cc2ccccc2)cc1`, for which the IC50 is > 8.8 µM and the IC90 was > 8.8 µM.
In the case of `CSc1sc(Cl)c2c1/C(=N\O)CC(C)(C)C2`, the IC50 was > 12 µM and the IC90 was > 12 µM.
Regarding `C=S(NC(=O)Nc1ccc(Cl)cc1)c1sc(Cl)c2c1C(=O)CCC2` (stereo not drawn), the half-inhibitory concentration (IC50) is > 8.22 µM and the IC90 was > 8.22 µM.
Regarding `CNc1ncnc(NNC(=O)Nc2ccc(OC(F)(F)F)cc2)c1[N+](=O)[O-]`, the IC50 is 3.31 µM and the IC90 was > 8.52 µM.
For `Cc1nc2c(/C(N)=N/OCc3cccc(Cl)c3)cnn2c(C)c1C`, the IC50 was > 9.6 µM and the IC90 was > 9.6 µM.
`CC(C)(C)c1ccc(C(=O)NNC(=O)c2ccc(CSc3ccc(C(F)(F)F)cn3)o2)cc1`: the IC50 is > 6.91 µM and the IC90 was > 6.91 µM.
As to `O=S1(=O)CC(S(=O)(=O)c2cccs2)c2ccccc21` (stereo not drawn), the IC50 is > 10.5 µM and the IC90 was > 10.5 µM.
Consider `O=C(NCCSCc1csc2ccc(Cl)cc12)Nc1ccc(Cl)cc1`, for which the IC50 is > 8.02 µM and the IC90 is > 8.02 µM.
For the compound `N#Cc1cnc(S)nc1N`, the IC50 is > 21.7 µM and the IC90 was > 21.7 µM.
